# Values quoted from earlier work, collected in patent US20060172368A1, “CGT1 as an antifungal target” (priority 2002, published 2006).
# Settings: mice, DOX 2 mg/ml in 5% sucrose as drinking water, approx. 5 ml per day
smiles,measurement,value
C[C@H]1c2cccc(O)c2C(=O)C2=C(O)[C@]3(O)C(=O)C(C(N)=O)=C(O)[C@@H](N(C)C)[C@@H]3[C@@H](O)[C@@H]21 [doxycycline],concentration of DOX in serum,more than 2 mg/ml of serum
